The source of these data is US9428503B2, “Imidazo[4,5-c]quinolin-2-one compounds and their use in treating Cancer” (AstraZeneca AB, priority 2014, dated 2016).

“And” between values parts separate entries of the source, which are not always exact repeats. Equal values may be shown once. Where a name gives a salt, the structure may show the parent alone. A value given as a limit tells only on which side of the number the result lay.

Holding throughout (format): cell-based
For one experiment, the target named is PI3K-α (Homo sapiens, UniProt P42336). The experiment can be described thus: Assay c) PI3K cellular potency assay (phospho-Akt T308 ELISA in BT474 cells). Conditions: BT474 cells, phospho-Akt T308, 2 h; geometric mean where repeated; read-out: Assay c) PI3Kα Cell IC50. (In general: ELISA stands for enzyme-linked immunosorbent assay.)
Sequence of PI3K-α (P42336 whole entry, looked up): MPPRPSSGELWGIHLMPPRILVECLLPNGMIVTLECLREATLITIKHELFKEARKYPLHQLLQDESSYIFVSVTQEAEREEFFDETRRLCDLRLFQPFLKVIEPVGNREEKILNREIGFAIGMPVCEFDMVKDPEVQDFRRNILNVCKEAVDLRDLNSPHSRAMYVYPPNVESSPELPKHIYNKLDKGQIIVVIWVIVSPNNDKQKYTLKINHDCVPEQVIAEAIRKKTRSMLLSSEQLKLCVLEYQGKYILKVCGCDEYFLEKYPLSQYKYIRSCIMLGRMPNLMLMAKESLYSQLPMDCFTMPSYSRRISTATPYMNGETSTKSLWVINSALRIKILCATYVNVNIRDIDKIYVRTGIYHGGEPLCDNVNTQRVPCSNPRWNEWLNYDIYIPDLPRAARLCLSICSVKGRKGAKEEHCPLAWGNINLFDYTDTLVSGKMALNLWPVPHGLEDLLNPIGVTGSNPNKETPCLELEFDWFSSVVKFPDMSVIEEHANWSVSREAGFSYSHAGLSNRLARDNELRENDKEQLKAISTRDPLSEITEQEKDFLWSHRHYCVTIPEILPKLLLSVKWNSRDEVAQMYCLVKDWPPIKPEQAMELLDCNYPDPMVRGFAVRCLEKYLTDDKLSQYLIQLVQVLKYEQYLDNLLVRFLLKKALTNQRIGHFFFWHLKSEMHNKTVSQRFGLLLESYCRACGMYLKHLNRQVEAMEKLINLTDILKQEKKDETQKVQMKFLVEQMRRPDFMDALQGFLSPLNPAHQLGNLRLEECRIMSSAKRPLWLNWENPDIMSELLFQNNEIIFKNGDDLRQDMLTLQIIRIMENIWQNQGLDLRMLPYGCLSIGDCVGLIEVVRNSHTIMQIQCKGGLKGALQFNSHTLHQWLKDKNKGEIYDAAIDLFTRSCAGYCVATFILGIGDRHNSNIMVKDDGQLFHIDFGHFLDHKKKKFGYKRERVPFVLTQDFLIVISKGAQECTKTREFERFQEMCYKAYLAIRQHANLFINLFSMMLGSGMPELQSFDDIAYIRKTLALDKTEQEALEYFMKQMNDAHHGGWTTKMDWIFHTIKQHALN
The target of the next experiment is ATR kinase (Homo sapiens (Human), UniProt Q13535). The experiment in a line: Assay b) ATR cellular potency assay (pChk1 Ser345 in HT29 cells treated with 4NQO). Conditions: HT29 cells, pChk1 Ser345 after 4NQO; geometric mean where repeated; read-out: Assay b) ATR Cell IC50.
The next experiment concerns the target mTOR (Homo sapiens (Human), UniProt P42345). The experiment in a line: Assay d) mTOR cellular potency assay (phospho-AKT Ser473 in MDA-MB-468 cells). Conditions: MDA-MB-468 cells, phospho-AKT Ser473, 2 h; geometric mean where repeated; read-out: Assay d) mTOR Cell IC50.
A further experiment concerns the target ATM kinase (Homo sapiens (Human), UniProt Q13315). The experiment can be described thus: Assay a) ATM cellular potency assay (pATM Ser1981 in X-ray irradiated HT29 cells). The settings on record: HT29 cells, pATM Ser1981 after X-ray irradiation; geometric mean where repeated; read-out: Assay a) ATM Cell IC50.

Sequence of ATM kinase (Q13315 whole entry): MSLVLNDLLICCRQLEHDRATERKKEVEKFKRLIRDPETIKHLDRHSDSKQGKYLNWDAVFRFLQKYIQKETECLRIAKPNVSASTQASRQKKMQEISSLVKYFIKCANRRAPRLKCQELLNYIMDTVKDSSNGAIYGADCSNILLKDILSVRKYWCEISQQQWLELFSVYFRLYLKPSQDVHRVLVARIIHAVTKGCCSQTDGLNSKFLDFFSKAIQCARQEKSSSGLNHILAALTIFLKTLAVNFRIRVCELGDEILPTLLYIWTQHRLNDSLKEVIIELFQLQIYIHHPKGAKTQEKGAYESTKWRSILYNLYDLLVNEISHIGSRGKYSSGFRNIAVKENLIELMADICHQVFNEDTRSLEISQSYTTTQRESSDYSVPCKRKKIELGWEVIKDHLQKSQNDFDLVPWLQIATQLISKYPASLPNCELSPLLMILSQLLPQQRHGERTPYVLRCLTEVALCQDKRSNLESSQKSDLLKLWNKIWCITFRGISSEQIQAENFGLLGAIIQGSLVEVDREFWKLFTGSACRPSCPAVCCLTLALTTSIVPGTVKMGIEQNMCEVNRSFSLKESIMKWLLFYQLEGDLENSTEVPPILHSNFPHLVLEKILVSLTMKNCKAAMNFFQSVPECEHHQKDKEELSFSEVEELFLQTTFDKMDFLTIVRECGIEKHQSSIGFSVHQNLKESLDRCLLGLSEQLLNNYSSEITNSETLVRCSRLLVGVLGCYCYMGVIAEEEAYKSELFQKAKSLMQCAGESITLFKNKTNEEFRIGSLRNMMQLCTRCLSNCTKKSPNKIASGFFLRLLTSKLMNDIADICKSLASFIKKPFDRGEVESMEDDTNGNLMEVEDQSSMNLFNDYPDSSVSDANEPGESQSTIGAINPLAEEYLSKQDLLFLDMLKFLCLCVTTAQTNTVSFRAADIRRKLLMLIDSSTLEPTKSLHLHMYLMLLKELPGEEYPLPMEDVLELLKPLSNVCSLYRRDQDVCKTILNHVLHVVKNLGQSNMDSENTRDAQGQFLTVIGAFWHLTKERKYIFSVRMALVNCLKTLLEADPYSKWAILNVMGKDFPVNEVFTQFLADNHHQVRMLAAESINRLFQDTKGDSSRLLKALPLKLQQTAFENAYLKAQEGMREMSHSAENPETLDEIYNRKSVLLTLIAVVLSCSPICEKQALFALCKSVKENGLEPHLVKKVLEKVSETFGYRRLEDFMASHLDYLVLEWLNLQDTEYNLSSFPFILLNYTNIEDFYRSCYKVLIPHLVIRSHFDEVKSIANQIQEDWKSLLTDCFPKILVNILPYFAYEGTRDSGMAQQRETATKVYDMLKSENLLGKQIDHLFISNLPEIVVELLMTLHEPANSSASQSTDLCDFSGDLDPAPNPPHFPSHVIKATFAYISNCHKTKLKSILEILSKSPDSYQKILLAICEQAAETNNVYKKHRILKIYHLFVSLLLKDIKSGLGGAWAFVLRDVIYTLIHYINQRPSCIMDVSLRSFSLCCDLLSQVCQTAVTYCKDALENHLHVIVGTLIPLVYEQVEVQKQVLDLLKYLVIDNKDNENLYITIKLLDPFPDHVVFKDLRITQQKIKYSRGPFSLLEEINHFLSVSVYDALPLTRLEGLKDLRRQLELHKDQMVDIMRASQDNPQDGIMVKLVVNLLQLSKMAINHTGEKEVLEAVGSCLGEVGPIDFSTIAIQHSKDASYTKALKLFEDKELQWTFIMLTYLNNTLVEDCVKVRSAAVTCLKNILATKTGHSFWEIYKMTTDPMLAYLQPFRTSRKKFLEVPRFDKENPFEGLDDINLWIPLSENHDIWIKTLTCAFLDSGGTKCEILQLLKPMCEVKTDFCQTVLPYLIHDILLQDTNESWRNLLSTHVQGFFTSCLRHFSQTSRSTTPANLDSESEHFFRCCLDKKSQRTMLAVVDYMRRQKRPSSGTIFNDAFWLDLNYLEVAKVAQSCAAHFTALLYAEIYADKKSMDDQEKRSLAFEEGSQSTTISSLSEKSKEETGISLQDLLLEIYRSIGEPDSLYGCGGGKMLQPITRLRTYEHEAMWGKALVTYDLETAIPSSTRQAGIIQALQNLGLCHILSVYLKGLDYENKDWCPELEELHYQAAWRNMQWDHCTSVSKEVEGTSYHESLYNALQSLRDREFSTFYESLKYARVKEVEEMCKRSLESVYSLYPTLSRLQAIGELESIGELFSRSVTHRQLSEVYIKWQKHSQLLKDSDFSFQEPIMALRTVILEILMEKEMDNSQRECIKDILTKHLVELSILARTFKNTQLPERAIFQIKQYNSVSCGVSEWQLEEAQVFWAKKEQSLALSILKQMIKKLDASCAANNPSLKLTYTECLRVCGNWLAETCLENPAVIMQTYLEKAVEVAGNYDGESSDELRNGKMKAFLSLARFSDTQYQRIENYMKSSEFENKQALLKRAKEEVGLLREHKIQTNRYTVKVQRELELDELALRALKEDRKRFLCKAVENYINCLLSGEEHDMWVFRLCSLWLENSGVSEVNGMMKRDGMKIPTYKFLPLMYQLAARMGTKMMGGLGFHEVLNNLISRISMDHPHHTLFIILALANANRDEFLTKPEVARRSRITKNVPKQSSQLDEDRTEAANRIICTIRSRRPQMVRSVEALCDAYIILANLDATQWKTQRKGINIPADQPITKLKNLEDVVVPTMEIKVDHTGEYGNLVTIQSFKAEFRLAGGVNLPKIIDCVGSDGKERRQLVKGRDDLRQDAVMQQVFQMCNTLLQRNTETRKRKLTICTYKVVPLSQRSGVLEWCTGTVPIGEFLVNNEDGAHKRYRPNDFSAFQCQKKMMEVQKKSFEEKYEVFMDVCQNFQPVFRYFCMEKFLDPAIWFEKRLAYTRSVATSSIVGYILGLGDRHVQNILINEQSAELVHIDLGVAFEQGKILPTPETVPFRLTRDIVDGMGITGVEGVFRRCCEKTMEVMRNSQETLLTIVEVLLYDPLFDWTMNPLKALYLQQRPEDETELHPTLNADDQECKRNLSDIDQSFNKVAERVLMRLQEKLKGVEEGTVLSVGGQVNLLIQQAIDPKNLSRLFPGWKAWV

The term IC50 denotes the point on the concentration scale where inhibition reaches its midpoint. Turning to `CN(C)CCCOc1ccc(-c2ccc3ncc4c(c3c2)n([C@@H]2CCCOC2)c(=O)n4C)c(F)n1` [Example 22, 8-[6-(3-dimethylaminopropoxy)-2-fluoropyridin-3-yl]-3-methyl-1-[(3R)-oxan-3-yl]imidazo[5,4-c]quinolin-2-one], the IC50 on PI3K-α was 849 nM; on ATR kinase, over 30000 nM; on mTOR it was 1370 nM; on ATM kinase, 0.552 nM.

For the compound `CN(C)CCCOc1ccc(-c2ccc3ncc4c(c3c2)n(C2(C)CCOCC2)c(=O)n4C)cn1` [Example 7, 8-[6-(3-dimethylaminopropoxy)pyridin-3-yl]-3-methyl-1-(4-methyloxan-4-yl)imidazo[5,4-c]quinolin-2-one], the IC50 on PI3K-α came to 541 nM; on ATR kinase, 10800 nM; on mTOR, 266 nM; at ATM kinase, 0.96 nM.

On to `CN(C)CCCOc1ccc(-c2ccc3ncc4c(c3c2)n(C2CCC2)c(=O)n4C)c(F)n1` [Example 51, 1-cyclobutyl-8-[6-[3-(dimethylamino)propoxy]-2-fluoro-3-pyridyl]-3-methyl-imidazo[4,5-c]quinolin-2-one methanesulfonic acid salt], for which the concentration for half-maximal inhibition (IC50) on PI3K-α is 3200 nM; on ATR kinase, over 30000 nM; on mTOR, 5380 nM; on ATM kinase it was 0.722 nM.

`CO[C@H]1CC[C@H](n2c(=O)n(C)c3cnc4ccc(-c5ccc(OCCCN(C)C)nc5)cc4c32)C1` [Example 26, 8-[6-(3-Dimethylaminopropoxy)pyridin-3-yl]-1-[(1S,3S)-3-methoxycyclopentyl]-3-methylimidazo[4,5-c]quinolin-2-one]: the IC50 is 331 nM on PI3K-α, over 21800 nM at ATR kinase, 360 nM at mTOR and 0.152 nM on ATM kinase.

As for `CO[C@H]1CC[C@@H](n2c(=O)n(C)c3cnc4cc(F)c(-c5ccc(OCCCN(C)C)nc5)cc4c32)C1` [Example 70, 8-[6-[3-(dimethylamino)propoxy]-3-pyridyl]-7-fluoro-1-[(1R,3S)-3-methoxycyclopentyl]-3-methyl-imidazo[4,5-c]quinolin-2-one], the IC50 at PI3K-α was over 30000 nM; on ATR kinase, over 24900 nM; at mTOR, over 30000 nM; on ATM kinase, 2.43 nM.

In the case of `CN(C)CCCOc1ccc(-c2ccc3ncc4c(c3c2)n([C@@H]2CCOC2)c(=O)n4C)cn1` [Example 44, 8-[6-[3-(Dimethylamino)propoxy]-3-pyridyl]-3-methyl-1-[(3R)-tetrahydrofuran-3-yl]imidazo[4,5-c]quinolin-2-one methanesulfonic acid salt], the IC50 at PI3K-α is 560 nM; on ATR kinase it was over 19200 nM; on mTOR, 2370 nM; at ATM kinase, 1.07 nM.

In the case of `CO[C@H]1C[C@@H](n2c(=O)[nH]c3cnc4ccc(-c5ccc(OCCCN6CCCC6)nc5)cc4c32)C1` [Example 35, 1-(cis-3-methoxycyclobutyl)-8-[6-(3-pyrrolidin-1-ylpropoxy)pyridin-3-yl]-3H-imidazo[4,5-c]quinolin-2-one], the IC50 at PI3K-α was determined as 3000 nM; on ATR kinase it was 17800 nM; on mTOR, 579 nM; at ATM kinase, 0.589 nM.

For `Cn1c(=O)n([C@H]2CCCOC2)c2c3cc(-c4ccc(OCCCN5CCCC5)nc4F)ccc3ncc21` [Example 61, 8-[2-Fluoro-6-(3-pyrrolidin-1-ylpropoxy)-3-pyridyl]-3-methyl-1-[(3S)-tetrahydropyran-3-yl]imidazo[4,5-c]quinolin-2-one], the 50% inhibitory concentration (IC50) at PI3K-α is over 16200 nM; at ATR kinase, over 30000 nM; at ATM kinase, 0.554 nM.

Take `Cn1c(=O)n([C@@H]2CCOC2)c2c3cc(-c4ccc(OCCCN5CCCCC5)nc4)ccc3ncc21` [Example 54, 3-methyl-8-[6-[3-(1-piperidyl)propoxy]-3-pyridyl]-1-[(3R)-tetrahydrofuran-3-yl]imidazo[4,5-c]quinolin-2-one methane sulfonic acid salt]: the IC50 at ATR kinase was over 27100 nM; at ATM kinase it was 1.1 nM and 0.715 nM.

In the case of `Cn1c(=O)n([C@H]2CCOC2)c2c3cc(-c4ccc(OCCCN5CCCCC5)nc4)ccc3ncc21` [Example 55, 3-methyl-8-[6-[3-(1-piperidyl)propoxy]-3-pyridyl]-1-[(3S)-tetrahydrofuran-3-yl]imidazo[4,5-c]quinolin-2-one], the IC50 at ATR kinase was over 16100 nM; at ATM kinase, 0.493 nM.

Turning to `CN(C)CCCOc1ccc(-c2ccc3ncc4c(c3c2)n(C2CCC2)c(=O)n4C)cn1` [Example 46, 1-cyclobutyl-8-[6-[3-(dimethylamino)propoxy]-3-pyridyl]-3-methyl-imidazo[4,5-c]quinolin-2-one methanesulfonic acid salt], the IC50 on PI3K-α was 794 nM; at ATR kinase, over 26000 nM; at ATM kinase it was 3.15 nM.

Turning to `CN(C)CCCOc1ccc(-c2ccc3ncc4c(c3c2)n([C@H]2CCOC2)c(=O)n4C)c(F)n1` [Example 49, 8-[6-[3-(dimethylamino)propoxy]-2-fluoro-3-pyridyl]-3-methyl-1-[(3S)-tetrahydrofuran-3-yl]imidazo[4,5-c]quinolin-2-one methanesulfonic acid salt], the IC50 at ATR kinase was over 30000 nM; on mTOR it was 3760 nM; on ATM kinase it was 1.34 nM.

As for `CO[C@@H]1CC[C@@H](n2c(=O)n(C)c3cnc4cc(F)c(-c5ccc(OCCCN(C)C)nc5)cc4c32)C1` [Example 62, 8-[6-[3-(Dimethylamino)propoxy]-3-pyridyl]-7-fluoro-1-[(1R,3R)-3-methoxycyclopentyl]-3-methyl-imidazo[4,5-c]quinolin-2-one], the half-maximal inhibitory concentration (IC50) is over 30000 nM on mTOR and 0.507 nM on ATM kinase.

On to `CO[C@H]1CC[C@H](n2c(=O)n(C)c3cnc4ccc(-c5ccc(OCCCN(C)C)nc5F)cc4c32)C1` [Example 69, 8-[6-[3-(dimethylamino)propoxy]-2-fluoro-3-pyridyl]-1-[(1S,3S)-3-methoxycyclopentyl]-3-methyl-imidazo[4,5-c]quinolin-2-one], for which the half-inhibitory concentration (IC50) on PI3K-α was over 2770 nM; at ATR kinase, over 30000 nM; at ATM kinase it was 0.324 nM.

As to `CN(C)CCCOc1ccc(-c2ccc3ncc4c(c3c2)n([C@@H]2CCOC2)c(=O)n4C)c(F)n1` [Example 50], the values for the IC50 on ATR kinase, on mTOR and on ATM kinase were over 30000 nM, 4480 nM and 1.44 nM, respectively.

For the compound `CO[C@H]1C[C@@H](n2c(=O)n(C)c3cnc4ccc(-c5ccc(OCCCN6CCCC6)nc5)cc4c32)C1` [Example 28, 1-(cis-3-methoxycyclobutyl)-3-methyl-8-[6-(3-pyrroldin-1-ylpropoxy)pyridin-3-yl]imidazo[4,5-c]quinolin-2-one], the IC50 was over 22800 nM on ATR kinase, 2770 nM at mTOR and 0.176 nM at ATM kinase.

In the case of `CO[C@H]1C[C@@H](n2c(=O)n(C)c3cnc4ccc(-c5ccc(OCCCN(C)C)nc5F)cc4c32)C1` [Example 18, 8-[6-(3-dimethylaminopropoxy)-2-fluoropyridin-3-yl]-1-(cis-3-methoxycyclobutyl)-3-methylimidazo[4,5-c]quinolin-2-one], the IC50 at PI3K-α is 2730 nM; at ATR kinase, over 30000 nM; at mTOR it was 3780 nM.
